Results from US8921362B2, “6,7-dialkoxy quinazoline derivatives and methods of treating drug resistant and other tumors” (Natco Pharma Limited, priority 2008, dated 2014).

Experiments:
Assay in all cases: KinomeScan
Format in all cases: binding
Settings in all cases: read-out: % Ctrl @ 10000 nM
PIK3CA = target: T1, PIK3CA (Homo sapiens, UniProt P42336)
T1 construct: host or cells: E. coli host derived from BL21, infected with T7 phage
Procedure, shortened: (§1)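 Each kinase was expressed as a T7 phage fusion, with lysates produced in log-phase BL21-derived E. coli. Captured phage after compound competition was measured by qPCR.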

TSSK1B = target: T2, TSSK1B (Homo sapiens, UniProt Q9BXA7)
T2 construct: host or cells: E. coli host derived from BL21, T7 phage
Procedure, shortened: as §1

LTK = target: T3, LTK (Homo sapiens, UniProt P29376)
T3 construct: host or cells: E. coli host derived from the BL21 strain, infected with T7 phage
Procedure, shortened: as §1

RET = target: T4, RET (Homo sapiens, UniProt P07949)
T4 construct: host or cells: E. coli host derived from BL21, T7 phage display
Procedure, shortened: as §1

TNIK = target: T5, TNIK (Homo sapiens, UniProt Q9UKE5)
T5 construct: host or cells: E. coli host derived from BL21, T7 phage
Procedure, shortened: as §1

p38-gamma = target: T6, p38-gamma (Homo sapiens, UniProt P53778)
T6 construct: host or cells: E. coli host derived from BL21, infected with T7 phage
Procedure, shortened: as §1

ACVR1 = target: T7, ACVR1 (Homo sapiens, UniProt Q04771)
T7 construct: host or cells: E. coli (BL21-derived), T7 phage lysate
Procedure, shortened: as §1

AKT1 = target: T8, AKT1 (Homo sapiens, UniProt P31749)
T8 construct: host or cells: E. coli (BL21-derived), T7 phage lysate
Procedure, shortened: as §1

TAOK1 = target: T9, TAOK1 (Homo sapiens, UniProt Q7L7X3)
T9 construct: host or cells: T7 phage grown in E. coli (BL21-derived)
Procedure, shortened: as §1

CDK2 = target: T10, CDK2 (Homo sapiens, UniProt P24941)
T10 construct: host or cells: T7 phage in E. coli host derived from BL21
Procedure, shortened: as §1

[1] = target: T11, RPS6KA4(Kin.Dom.-2-C-terminal) (Homo sapiens, UniProt O75676)
T11 construct: RPS6KA4(KIN.DOM.2); host or cells: E. coli host derived from BL21, T7 phage display
Procedure, shortened: as §1

FYN = target: T12, FYN (Homo sapiens, UniProt P06241)
T12 construct: host or cells: T7 phage in E. coli host derived from BL21
Procedure, shortened: as §1

NDR2 = target: T13, NDR2 (Homo sapiens, UniProt Q9Y2H1)
T13 construct: host or cells: T7 phage grown in E. coli host derived from BL21
Procedure, shortened: as §1

LOK = target: T14, LOK (Homo sapiens, UniProt O94804)
T14 construct: host or cells: E. coli host derived from the BL21 strain, infected with T7 phage
Procedure, shortened: as §1

[2] = target: T15, RPS6KA6(Kin.Dom.-2-C-terminal) (Homo sapiens, UniProt Q9UK32)
T15 construct: RPS6KA6(Kin.Dom.-2-C-terminal); host or cells: T7 phage grown in E. coli (BL21-derived)
Procedure, shortened: as §1

EGFR(G719S) = target: T16, EGFR(G719S) (Homo sapiens, UniProt P00533, G719S)
T16 construct: purchased Ambit Biosciences Corp (KinomeScan); host or cells: T7 phage in E. coli host derived from BL21
Procedure, shortened: as §1

ADCK3 = target: T17, ADCK3 (Homo sapiens, UniProt Q8NI60)
T17 construct: host or cells: E. coli (BL21-derived), T7 phage lysate
Procedure, shortened: as §1

PIP5K1A = target: T18, PIP5K1A (Homo sapiens, UniProt Q99755)
T18 construct: host or cells: T7 phage in E. coli host derived from BL21
Procedure, shortened: as §1

MAP4K4 = target: T19, MAP4K4 (Homo sapiens, UniProt O95819)
T19 construct: host or cells: E. coli host derived from the BL21 strain, infected with T7 phage
Procedure, shortened: as §1

MST1R = target: T20, MST1R (Homo sapiens, UniProt Q04912)
T20 construct: host or cells: T7 phage grown in E. coli host derived from BL21
Procedure, shortened: as §1

ABL1(E255K) = target: T21, ABL1(E255K) (Homo sapiens, UniProt P00519, E255K)
T21 construct: host or cells: E. coli (BL21-derived), T7 phage lysate
Procedure, shortened: as §1

ABL1(F317I) = target: T22, ABL1(F317I) (Homo sapiens, UniProt P00519, F317I)
T22 construct: host or cells: E. coli (BL21-derived), T7 phage lysate
Procedure, shortened: as §1

MKNK1 = target: T23, MKNK1 (Homo sapiens, UniProt Q9BUB5)
T23 construct: host or cells: T7 phage grown in E. coli host derived from BL21
Procedure, shortened: as §1

FLT3(D835H) = target: T24, FLT3(D835H) (Homo sapiens, UniProt P36888, D835H)
T24 construct: host or cells: T7 phage in E. coli host derived from BL21
Procedure, shortened: as §1

BLK = target: T25, BLK (Homo sapiens, UniProt P51451)
T25 construct: host or cells: E. coli host derived from BL21
Procedure, shortened: as §1

PRKCE = target: T26, PRKCE (Homo sapiens, UniProt Q02156)
T26 construct: host or cells: T7 phage in E. coli host derived from BL21
Procedure, shortened: as §1

EPHB2 = target: T27, EPHB2 (Homo sapiens, UniProt P29323)
T27 construct: purchased Ambit Biosciences Corp; host or cells: T7 phage in E. coli host derived from BL21
Procedure, shortened: as §1

TAOK3 = target: T28, TAOK3 (Homo sapiens, UniProt Q9H2K8)
T28 construct: host or cells: T7 phage grown in E. coli (BL21-derived)
Procedure, shortened: as §1

BIKE = target: T29, BIKE (Homo sapiens, UniProt Q9NSY1)
T29 construct: host or cells: E. coli host derived from BL21
Procedure, shortened: as §1

MAP3K4 = target: T30, MAP3K4 (Homo sapiens, UniProt Q9Y6R4)
T30 construct: host or cells: E. coli host derived from the BL21 strain, infected with T7 phage
Procedure, shortened: as §1

SRMS = target: T31, SRMS (Homo sapiens, UniProt Q9H3Y6)
T31 construct: host or cells: T7 phage grown in E. coli (BL21-derived)
Procedure, shortened: as §1

T19 sequence (O95819 whole entry): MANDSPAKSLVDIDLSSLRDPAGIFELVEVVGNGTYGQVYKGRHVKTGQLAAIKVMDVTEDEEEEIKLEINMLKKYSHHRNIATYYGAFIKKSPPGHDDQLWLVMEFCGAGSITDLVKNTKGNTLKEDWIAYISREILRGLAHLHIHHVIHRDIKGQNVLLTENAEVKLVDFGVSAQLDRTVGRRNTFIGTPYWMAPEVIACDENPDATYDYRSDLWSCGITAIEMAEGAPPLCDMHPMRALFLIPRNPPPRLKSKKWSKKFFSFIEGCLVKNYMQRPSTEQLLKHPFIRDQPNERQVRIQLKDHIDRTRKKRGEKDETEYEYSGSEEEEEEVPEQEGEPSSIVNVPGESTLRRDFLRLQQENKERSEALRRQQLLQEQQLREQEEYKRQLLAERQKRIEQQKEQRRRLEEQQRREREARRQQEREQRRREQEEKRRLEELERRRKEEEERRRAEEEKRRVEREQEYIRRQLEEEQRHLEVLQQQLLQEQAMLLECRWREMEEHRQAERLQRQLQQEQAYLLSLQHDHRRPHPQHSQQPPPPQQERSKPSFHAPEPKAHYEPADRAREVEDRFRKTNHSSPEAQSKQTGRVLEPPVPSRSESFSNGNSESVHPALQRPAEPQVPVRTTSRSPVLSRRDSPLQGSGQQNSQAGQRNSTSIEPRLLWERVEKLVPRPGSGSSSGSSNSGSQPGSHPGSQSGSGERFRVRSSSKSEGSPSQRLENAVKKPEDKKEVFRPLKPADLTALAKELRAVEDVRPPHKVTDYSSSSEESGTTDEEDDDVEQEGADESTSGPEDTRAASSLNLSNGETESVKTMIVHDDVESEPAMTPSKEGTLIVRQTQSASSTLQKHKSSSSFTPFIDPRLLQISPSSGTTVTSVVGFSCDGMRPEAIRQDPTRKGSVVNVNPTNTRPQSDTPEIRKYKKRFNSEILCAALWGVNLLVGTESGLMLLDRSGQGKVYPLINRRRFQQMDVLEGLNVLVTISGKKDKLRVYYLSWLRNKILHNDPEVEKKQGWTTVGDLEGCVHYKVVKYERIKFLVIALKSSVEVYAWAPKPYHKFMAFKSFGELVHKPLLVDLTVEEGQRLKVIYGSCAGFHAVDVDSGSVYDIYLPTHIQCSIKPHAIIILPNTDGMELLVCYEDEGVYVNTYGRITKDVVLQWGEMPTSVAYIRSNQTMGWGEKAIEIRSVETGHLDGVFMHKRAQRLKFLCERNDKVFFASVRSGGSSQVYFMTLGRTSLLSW
T8 sequence (P31749 whole entry): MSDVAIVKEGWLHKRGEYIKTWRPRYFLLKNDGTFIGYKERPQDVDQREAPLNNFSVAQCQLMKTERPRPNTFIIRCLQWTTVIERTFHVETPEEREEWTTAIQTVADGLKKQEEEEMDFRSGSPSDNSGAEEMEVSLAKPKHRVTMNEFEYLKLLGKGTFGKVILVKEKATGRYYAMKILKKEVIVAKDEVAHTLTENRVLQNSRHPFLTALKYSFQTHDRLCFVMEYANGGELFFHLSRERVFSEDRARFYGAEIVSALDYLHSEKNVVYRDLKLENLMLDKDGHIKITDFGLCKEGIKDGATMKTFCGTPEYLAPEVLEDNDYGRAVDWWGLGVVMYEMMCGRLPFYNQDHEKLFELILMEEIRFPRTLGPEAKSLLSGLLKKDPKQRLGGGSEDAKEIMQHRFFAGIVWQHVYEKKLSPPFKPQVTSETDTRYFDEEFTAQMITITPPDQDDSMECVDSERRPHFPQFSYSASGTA
T28 sequence (Q9H2K8 whole entry): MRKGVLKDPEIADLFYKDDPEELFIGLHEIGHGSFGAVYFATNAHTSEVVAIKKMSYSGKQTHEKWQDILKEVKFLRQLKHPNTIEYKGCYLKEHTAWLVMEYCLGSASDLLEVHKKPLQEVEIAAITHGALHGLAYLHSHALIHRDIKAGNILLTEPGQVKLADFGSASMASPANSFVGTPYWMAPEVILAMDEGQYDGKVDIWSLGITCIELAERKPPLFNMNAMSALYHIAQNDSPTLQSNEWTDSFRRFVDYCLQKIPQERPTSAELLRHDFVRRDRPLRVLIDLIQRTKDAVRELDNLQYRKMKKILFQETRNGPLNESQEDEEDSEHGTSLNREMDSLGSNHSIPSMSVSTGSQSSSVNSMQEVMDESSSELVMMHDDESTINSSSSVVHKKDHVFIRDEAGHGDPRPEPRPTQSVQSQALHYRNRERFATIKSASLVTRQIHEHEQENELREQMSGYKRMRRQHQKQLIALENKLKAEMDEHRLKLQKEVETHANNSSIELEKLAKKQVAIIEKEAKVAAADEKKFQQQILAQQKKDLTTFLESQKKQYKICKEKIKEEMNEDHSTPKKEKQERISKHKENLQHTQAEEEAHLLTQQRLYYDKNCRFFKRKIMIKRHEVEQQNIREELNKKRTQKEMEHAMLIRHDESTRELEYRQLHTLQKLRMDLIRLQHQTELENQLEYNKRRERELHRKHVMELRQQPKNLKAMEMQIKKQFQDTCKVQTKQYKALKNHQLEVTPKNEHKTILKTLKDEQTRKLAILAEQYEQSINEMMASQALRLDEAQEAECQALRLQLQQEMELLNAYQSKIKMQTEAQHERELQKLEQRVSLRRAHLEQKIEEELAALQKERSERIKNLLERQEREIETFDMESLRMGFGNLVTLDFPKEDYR
T29 sequence (Q9NSY1 whole entry): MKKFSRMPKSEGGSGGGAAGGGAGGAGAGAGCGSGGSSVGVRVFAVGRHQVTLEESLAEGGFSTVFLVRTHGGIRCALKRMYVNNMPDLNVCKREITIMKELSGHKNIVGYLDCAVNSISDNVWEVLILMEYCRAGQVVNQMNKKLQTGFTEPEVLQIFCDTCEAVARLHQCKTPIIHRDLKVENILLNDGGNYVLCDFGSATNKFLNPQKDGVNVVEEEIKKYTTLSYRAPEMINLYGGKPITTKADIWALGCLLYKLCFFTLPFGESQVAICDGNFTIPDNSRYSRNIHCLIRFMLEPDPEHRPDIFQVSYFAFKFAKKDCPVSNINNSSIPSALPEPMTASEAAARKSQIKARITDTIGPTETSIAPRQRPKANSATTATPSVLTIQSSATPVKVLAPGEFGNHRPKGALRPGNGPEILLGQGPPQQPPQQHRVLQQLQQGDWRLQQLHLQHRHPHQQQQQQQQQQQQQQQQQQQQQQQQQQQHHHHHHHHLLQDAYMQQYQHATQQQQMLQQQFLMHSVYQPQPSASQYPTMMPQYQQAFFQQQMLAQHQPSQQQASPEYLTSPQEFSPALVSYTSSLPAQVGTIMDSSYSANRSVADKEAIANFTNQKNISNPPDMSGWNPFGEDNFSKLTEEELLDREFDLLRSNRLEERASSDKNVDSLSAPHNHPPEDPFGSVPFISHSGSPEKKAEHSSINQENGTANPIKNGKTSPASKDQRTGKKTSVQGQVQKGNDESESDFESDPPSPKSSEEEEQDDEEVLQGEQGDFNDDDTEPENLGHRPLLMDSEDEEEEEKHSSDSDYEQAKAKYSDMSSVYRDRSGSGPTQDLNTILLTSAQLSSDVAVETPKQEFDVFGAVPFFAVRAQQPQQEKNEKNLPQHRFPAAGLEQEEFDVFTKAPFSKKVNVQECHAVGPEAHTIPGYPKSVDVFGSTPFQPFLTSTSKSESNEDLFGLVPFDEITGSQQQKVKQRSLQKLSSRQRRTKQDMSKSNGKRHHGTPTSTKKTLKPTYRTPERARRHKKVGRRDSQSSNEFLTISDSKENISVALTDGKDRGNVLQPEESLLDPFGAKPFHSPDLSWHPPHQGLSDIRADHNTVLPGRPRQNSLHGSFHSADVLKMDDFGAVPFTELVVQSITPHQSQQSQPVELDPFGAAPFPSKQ
T4 sequence (P07949 29-1114): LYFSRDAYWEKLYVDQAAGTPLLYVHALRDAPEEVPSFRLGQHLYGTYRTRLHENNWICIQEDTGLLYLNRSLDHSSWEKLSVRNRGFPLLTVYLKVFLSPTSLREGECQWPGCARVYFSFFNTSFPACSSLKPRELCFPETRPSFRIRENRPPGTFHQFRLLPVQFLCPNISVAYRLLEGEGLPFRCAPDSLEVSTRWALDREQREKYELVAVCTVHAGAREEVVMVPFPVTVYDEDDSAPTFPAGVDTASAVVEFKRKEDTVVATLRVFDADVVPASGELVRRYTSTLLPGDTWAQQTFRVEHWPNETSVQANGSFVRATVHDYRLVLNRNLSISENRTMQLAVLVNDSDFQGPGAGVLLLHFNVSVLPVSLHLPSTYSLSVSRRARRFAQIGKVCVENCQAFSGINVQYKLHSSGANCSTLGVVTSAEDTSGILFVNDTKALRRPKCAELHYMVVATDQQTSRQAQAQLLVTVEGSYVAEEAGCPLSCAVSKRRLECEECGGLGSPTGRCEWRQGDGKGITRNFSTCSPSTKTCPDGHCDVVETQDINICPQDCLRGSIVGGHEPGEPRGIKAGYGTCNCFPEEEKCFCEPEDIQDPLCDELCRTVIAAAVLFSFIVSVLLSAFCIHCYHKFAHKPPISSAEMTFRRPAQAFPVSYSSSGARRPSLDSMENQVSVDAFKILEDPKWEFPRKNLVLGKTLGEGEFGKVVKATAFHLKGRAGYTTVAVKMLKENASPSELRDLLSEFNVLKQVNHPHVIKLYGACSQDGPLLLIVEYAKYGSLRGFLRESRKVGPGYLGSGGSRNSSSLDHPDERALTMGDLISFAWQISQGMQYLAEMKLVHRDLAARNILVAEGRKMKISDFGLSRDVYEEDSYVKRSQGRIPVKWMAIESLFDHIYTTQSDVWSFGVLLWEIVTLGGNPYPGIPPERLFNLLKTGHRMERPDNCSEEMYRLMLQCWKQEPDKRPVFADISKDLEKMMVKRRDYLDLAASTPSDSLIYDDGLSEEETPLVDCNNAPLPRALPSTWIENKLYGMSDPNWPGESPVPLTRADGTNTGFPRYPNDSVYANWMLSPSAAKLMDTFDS

C#Cc1cccc(Nc2ncnc3cc(OC)c(OCCCN4CCOCC4)cc23)c1 [NRC-2694, N-(3-ethynylphenyl)-7-methoxy-6-[3-(4-morpholinyl)propoxy]-4-quinazolinamine] gave a remaining binding at 10 µM (PIK3CA) of 100%, a remaining binding at 10 µM (TSSK1B) of 93% and a remaining binding at 10 µM (LTK) of 3.8%. The remaining binding at 10 µM (RET) was 65%, the remaining binding at 10 µM (TNIK) was 17% and the remaining binding at 10 µM (p38-gamma) was 97%. For the same compound, the remaining binding at 10 µM (ACVR1) was 61%, the remaining binding at 10 µM (AKT1) was 100% and the remaining binding at 10 µM (TAOK1) was 54%. It also gave a remaining binding at 10 µM (CDK2) of 94%, a remaining binding at 10 µM [1] of 8.9% and a remaining binding at 10 µM (FYN) of 41%. It also gave a remaining binding at 10 µM (NDR2) of 74%, a remaining binding at 10 µM (LOK) of 0% and a remaining binding at 10 µM [2] of 55%. It also gave a remaining binding at 10 µM (EGFR(G719S)) of 0%, a remaining binding at 10 µM (ADCK3) of 14% and a remaining binding at 10 µM (PIP5K1A) of 61%. It also gave a remaining binding at 10 µM (MAP4K4) of 20%, a remaining binding at 10 µM (MST1R) of 94% and a remaining binding at 10 µM (ABL1(E255K)) of 80%. For the same compound, the remaining binding at 10 µM (ABL1(F317I)) was 48%, the remaining binding at 10 µM (MKNK1) was 1.2% and the remaining binding at 10 µM (FLT3(D835H)) was 8.1%. For the same compound, the remaining binding at 10 µM (BLK) was 4.4%, the remaining binding at 10 µM (PRKCE) was 65% and the remaining binding at 10 µM (EPHB2) was 83%. It also gave a remaining binding at 10 µM (TAOK3) of 76%, a remaining binding at 10 µM (BIKE) of 36% and a remaining binding at 10 µM (MAP3K4) of 53%. The remaining binding at 10 µM (SRMS) was 100%.
